# In article PMC8599359 (Molecular Neurobiology, 2021):
# “Also recorded” adds a separate entry of the source.
# Columns and labels:
# C3H/HeJ mice pups, brain = test: Diffusion tensor imaging of pups; assay type: in vivo, mouse
# Method: In vivo bioimaging (diffusion tensor imaging (DTI) and magnetic resonance spectroscopy (^1H MRS)) was performed using a 7 Tesla/16 cm Bruker PharmaScan or a 7 Tesla 21 cm Bruker Biospec (Karlsure, Germany) MRI/MRS system. At PND 28–34, DTI was performed on live mice pups to determine microstructural changes. Animals from both DTG- and vehicle-treated (control) groups were scanned. Pups (male and female) were randomly selected from each dam. As described in our previous work, a 4-segment echo planar imaging (EPI) readout with a balanced, rotationally invariant and alternating polarity icosahedral scheme (12 directions) and b value = 800 s/mm^2 were utilized. Diffusion Toolkit (http://trackvis.org/dtk/) was used to calculate DTI metrics, fractional anisotropy (FA). Region of interest (ROI) analysis was performed to measure DTI metrics on hippocampus (HI), cortex (CT), striatum (ST), thalamus (TH), hypothalamus (HY), and cerebellum (CE).
# MMP-19 = target: T1, MMP-19 (Homo sapiens, UniProt Q99542); test: Fluorometric substrate assay (MMP inhibitor profiling kit); assay type: biochemical; details: human recombinant MMP-19, 60 min preincubation, four-parameter fit
# T1 construct: purchased Enzo life sciences BML-AK308
# Method: (§1) Kit contained a panel of ten MMPs and a quenched fluorogenic substrate OMNIMMP® RED. Composition of a quenched fluorogenic substrate was TQ3-GABA-Pro-Cha-Abu-Smc-His-Ala-Dab(6’-TAMRA)-Ala-Lys-NH2 [TQ3 = quencher; GABA = 4-aminobutyric acid; Cha = L-cyclohexylalanine; Abu = 2-aminobutyric acid; Smc = S-methyl-L-cysteine; Dab = 2,4-diaminobutyric acid; 6’-TAMRA = 6’-tetramethylrhodamine]. Experiment was performed as per instructions provided in the manufacturer’s manual. The assays were performed in a 96-well, black, flat, microplate format. The compound NNGH was provided as a prototypic control inhibitor. […] Untreated MMPs were used as control. The experiment was performed in biological triplicates. After 60-min incubation, fluorogenic substrate OMNIMMP® RED was added to each reaction/well to start the reaction. The plate was continuously read at Ex/Em = 545/576 nm (cutoff at 570 nm) for 30 min with 1-min time intervals at constant temperature, 37 °C, using Molecular Devices SpectraMax M3 plate reader with SoftMax Pro 6.2 software.
# MMP-13 = target: T2, MMP-13 (Homo sapiens, UniProt P45452); test: as above; assay type: biochemical
# T2 construct: purchased Enzo life sciences BML-AK308
# Method: as §1
# MMP-8 = target: T3, MMP-8 (Homo sapiens, UniProt P22894); test: as above; assay type: biochemical
# T3 construct: purchased Enzo life sciences BML-AK308
# Method: as §1
# MMP-3 = target: T4, MMP-3 (Homo sapiens, UniProt P08254); test: as above; assay type: biochemical; details: human recombinant MMP-3, 60 min preincubation, four-parameter fit
# T4 construct: purchased Enzo life sciences BML-AK308
# Method: as §1
# MMP-14 = target: T5, MMP-14 (Homo sapiens, UniProt P50281); test: as above; assay type: biochemical
# T5 construct: purchased Enzo life sciences BML-AK308
# Method: as §1
# MMP-12 = target: T6, MMP-12 (Homo sapiens, UniProt P39900); test: as above; assay type: biochemical; details: human recombinant MMP-12, 60 min preincubation, four-parameter fit
# T6 construct: purchased Enzo life sciences BML-AK308
# Method: as §1
# MMP-1 = target: T7, MMP-1 (Homo sapiens, UniProt P03956); test: as above; assay type: biochemical; details: human recombinant MMP-1, 60 min preincubation, four-parameter fit
# T7 construct: purchased Enzo life sciences BML-AK308
# Method: as §1
# MMP-7 = target: T8, MMP-7 (Homo sapiens, UniProt P09237); test: as above; assay type: biochemical; details: human recombinant MMP-7, 60 min preincubation, four-parameter fit
# T8 construct: purchased Enzo life sciences BML-AK308
# Method: as §1
# [1] = system: C3H/HeJ mice pups, hippocampus; test: Magnetic resonance spectroscopy (1H MRS) of pups; assay type: in vivo, mouse
# Method: After DTI measurements, the same animals were scanned by ^1H MRS to measure metabolite concentrations. N-Acetylaspartate (NAA), total choline (tCho), and total creatine (tCre) were measured in HI region. Animals from both groups, DTG and control, were scanned. SemiLASER localization with timing parameters (TE/TR = 40/4000 ms, 576 averages, 2048 points) was used to obtain MRS data. Voxel was located on HI. All first- and second-order shim terms were automatically adjusted using MAPSHIM® (Bruker, Billerica, MA). A final shim performed manually, if necessary, to achieve a water line width of 10–15 Hz. The water signal was suppressed by variable power radiofrequency (RF) pulses with optimized relaxation delays (VAPOR). MRS data were quantified using LCModel (LCMODEL Inc., CA). Results were expressed as a percentage of the sum of all 3 metabolites as a semi-quantitative method for reporting metabolite concentrations in institutional units (I.U.). Glycerophosphocholine and phosphocholine were added and reported as total choline-containing compounds.
# THP-1 cells = test: MTT cytotoxicity assay; assay type: cell-based; details: THP-1 cells, 1, 10 or 100 µM, 18 h
# Method: THP-1 cells were plated in 96-well plates at a density of 0.08 × 10^6 cells per well. […] Vehicle-treated cells were used as controls. For each treatment, twelve samples were utilized. Cells were washed with PBS and incubated with 100 μL/well of MTT solution (5 mg/mL) for 45 min at 37 °C. After incubation, MTT solution was removed, and DMSO (200 μL) was added to each well. Absorbance was measured at 490 nm on a Molecular Devices SpectraMax M3 plate reader with SoftMax […].2 software (Sunnyvale, CA). Absorbance was compared to that of control cells to determine cytotoxicity.
# T3 sequence (P22894 101-467): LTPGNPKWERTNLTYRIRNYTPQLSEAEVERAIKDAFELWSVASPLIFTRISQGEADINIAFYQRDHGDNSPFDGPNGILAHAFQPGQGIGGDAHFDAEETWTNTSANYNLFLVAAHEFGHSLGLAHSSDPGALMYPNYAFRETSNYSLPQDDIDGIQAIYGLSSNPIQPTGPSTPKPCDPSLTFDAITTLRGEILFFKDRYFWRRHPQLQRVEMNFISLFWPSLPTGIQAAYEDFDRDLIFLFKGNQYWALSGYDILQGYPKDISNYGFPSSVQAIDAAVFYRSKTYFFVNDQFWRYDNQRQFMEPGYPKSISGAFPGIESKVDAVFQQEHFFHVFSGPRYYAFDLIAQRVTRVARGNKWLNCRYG
# T4 sequence (P08254 100-477): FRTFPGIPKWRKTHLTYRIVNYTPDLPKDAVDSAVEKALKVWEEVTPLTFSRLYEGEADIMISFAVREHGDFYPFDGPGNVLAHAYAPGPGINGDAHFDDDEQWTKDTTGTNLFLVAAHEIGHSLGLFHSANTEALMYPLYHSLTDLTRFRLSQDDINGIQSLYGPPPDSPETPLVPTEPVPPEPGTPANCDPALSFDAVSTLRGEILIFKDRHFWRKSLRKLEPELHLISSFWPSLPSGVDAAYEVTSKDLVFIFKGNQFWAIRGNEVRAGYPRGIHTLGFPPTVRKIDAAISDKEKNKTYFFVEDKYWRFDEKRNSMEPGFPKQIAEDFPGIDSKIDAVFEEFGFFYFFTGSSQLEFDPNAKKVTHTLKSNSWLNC
# T7 sequence (P03956 100-469): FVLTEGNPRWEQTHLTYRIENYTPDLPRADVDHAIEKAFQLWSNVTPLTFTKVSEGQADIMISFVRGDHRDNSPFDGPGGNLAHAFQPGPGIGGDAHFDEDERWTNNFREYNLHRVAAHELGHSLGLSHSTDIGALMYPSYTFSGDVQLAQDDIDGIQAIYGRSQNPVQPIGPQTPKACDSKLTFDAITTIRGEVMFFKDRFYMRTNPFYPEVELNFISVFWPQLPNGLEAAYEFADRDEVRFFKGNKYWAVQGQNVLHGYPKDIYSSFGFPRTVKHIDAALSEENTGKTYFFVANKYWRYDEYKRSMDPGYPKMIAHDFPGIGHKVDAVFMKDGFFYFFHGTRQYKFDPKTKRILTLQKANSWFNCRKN
# T1 sequence (Q99542 98-508): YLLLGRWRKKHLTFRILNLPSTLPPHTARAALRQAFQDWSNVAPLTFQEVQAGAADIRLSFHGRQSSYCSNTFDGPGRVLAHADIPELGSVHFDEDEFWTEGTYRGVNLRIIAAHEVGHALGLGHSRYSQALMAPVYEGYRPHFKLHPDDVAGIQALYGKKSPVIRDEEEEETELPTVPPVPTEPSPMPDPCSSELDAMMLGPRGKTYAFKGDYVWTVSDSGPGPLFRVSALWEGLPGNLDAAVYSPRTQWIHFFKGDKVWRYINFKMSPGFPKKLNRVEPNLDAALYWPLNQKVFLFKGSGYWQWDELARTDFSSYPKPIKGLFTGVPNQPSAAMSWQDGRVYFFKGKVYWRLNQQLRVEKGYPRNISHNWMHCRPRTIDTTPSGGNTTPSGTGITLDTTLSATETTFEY
# T6 sequence (P39900 106-470): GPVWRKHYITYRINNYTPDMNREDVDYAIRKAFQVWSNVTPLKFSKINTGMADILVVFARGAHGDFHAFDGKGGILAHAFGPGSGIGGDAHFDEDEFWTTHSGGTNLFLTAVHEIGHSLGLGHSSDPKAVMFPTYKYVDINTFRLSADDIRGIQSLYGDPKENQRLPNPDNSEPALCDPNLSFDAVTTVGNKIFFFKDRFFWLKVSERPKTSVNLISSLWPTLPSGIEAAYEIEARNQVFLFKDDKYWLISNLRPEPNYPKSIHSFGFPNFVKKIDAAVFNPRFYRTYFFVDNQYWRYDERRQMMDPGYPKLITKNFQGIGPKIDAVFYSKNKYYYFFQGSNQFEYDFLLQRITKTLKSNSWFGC
# T8 sequence (P09237 95-267): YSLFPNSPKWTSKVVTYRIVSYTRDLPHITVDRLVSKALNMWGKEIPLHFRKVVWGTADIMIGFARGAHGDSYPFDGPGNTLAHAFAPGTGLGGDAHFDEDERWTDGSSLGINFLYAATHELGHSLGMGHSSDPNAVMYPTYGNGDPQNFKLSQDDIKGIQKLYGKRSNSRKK
smiles,measurement,setting,value
"C[C@@H]1CCO[C@H]2Cn3cc(C(=O)NCc4ccc(F)cc4F)c(=O)c(O)c3C(=O)N12 [DTG, Dolutegravir]",fractional anisotropy (FA) values vs control,"C3H/HeJ mice pups, brain; PND 28-34, all six brain regions (HI, CT, ST, TH, HY, CE)",significantly lower
same,fractional anisotropy (FA) values vs control,"C3H/HeJ mice pups, brain; female pups, HI",trend of decrease
same,fractional anisotropy (FA) values vs control,"C3H/HeJ mice pups, brain; female pups, TH",significant reduction
same,fractional anisotropy (FA) values vs control,"C3H/HeJ mice pups, brain; male pups, HI, CT, ST and HY",significantly reduced
same,fractional anisotropy (FA) values vs control,"C3H/HeJ mice pups, brain; male pups, TH and CE",trend of reduced FA values
same,IC50,MMP-19,54 µM
same,inhibitory effect compared to doxycycline,"MMP-13; MMP-13, 20 µM",higher inhibitory effect
same,IC50,"MMP-13; human recombinant MMP-13, 60 min preincubation, four-parameter fit",36.5 µM
same,inhibitory effect compared to doxycycline,"MMP-8; MMP-8, 20 µM",higher inhibitory effect
same,IC50,"MMP-8; human recombinant MMP-8, 60 min preincubation, four-parameter fit",12.1 µM
same,IC50,MMP-3,60.3 µM
same,inhibitory effect compared to doxycycline,"MMP-14; MMP-14, 20 µM",higher inhibitory effect
same,IC50,"MMP-14; human recombinant MMP-14, 60 min preincubation, four-parameter fit",10.5 µM
same,IC50,MMP-12,131 µM
same,IC50,MMP-1,83.9 µM
same,IC50,MMP-7,309 µM
same,NAA levels in hippocampus vs control,"[1]; PND 28-34, all pups",significantly reduced
same,tCho levels in hippocampus vs control,"[1]; PND 28-34, all pups",significant increase
same,tCre (internal reference) in hippocampus vs control,"[1]; PND 28-34, all pups",No differences
same,NAA in hippocampus vs control,[1]; female pups,significantly reduced
same,"Cytotoxicity (cellular viability, MTT)",THP-1 cells,Cytotoxicity was not observed at any concentration; also recorded: no DTG-induced cytotoxicity
